Measured values: patent publication US20150119247A1, “Composition and Method for Stress Mitigation in Plants” (Stoller Enterprises, Inc., priority 2011, published 2015)

What was measured:
Type in all cases: in vivo
field corn = experiment: Field corn yield trials, Ohio, cytokinin with low potassium; settings: potassium ½ lb. to 1 lb. per acre with cytokinin (X-Cyte) 1 pint per acre; unreplicated field trials over three years
Excerpt: In this example, the effect of the plant growth regulator/hormone, cytokinin, applied together with low concentrations of potassium, was observed. The cytokinin that was field-applied was X-Cyte, as previously disclosed. In these unreplicated field trials, conducted in Ohio over a three year period, potassium at ½ lb. to 1 lb. per acre and cytokinin at 1 pint per acre were applied to field corn. The average increase in yield attained by applying potassium, in addition to cytokinin, was approximately fifteen (15) bushels per acre.

Arabidopsis thaliana = experiment: High temperature seed/silique development, first experiment (FIG. 1)
Excerpt: These experiments employed the model crop plant, Arabidopsis thaliana, whose genome was mapped as early as the year 2000. To ensure uniformity, the tested plants were selected such that they were in the beginning stages of flowering and had balanced numbers of flowers across groups. The control agent as well as all tested agents were applied in a water solution containing 0.01% Silwet® super spreader (obtained from General Electric) to the leaves and flowers (i.e., foliage) of the tested plants. […] The third and fourth agents tested consisted of 6-benzyl adenine (6-BA) and kinetin (KIN)—both cytokinins—each applied at the rate of 100 μg/1 (0.1 ppm). […] Aqueous solutions of the tested agents prepared to the stated concentrations/doses were sprayed onto test groups of flowers and leaves (i.e., foliage) of Arabidopsis thaliana until runoff at one day prior to heat exposure and again at four days after the beginning of heat exposure. The total duration of heat exposure was fourteen (14) days. […] The seed pods (i.e. siliques), filled with developed seeds (siliques >7 mm long and/or >1 mm wide and/or bearing seeds), were counted just prior to the beginning of the experiment, and again after fourteen (14) days of heat exposure treatments.

[1] = test system: field-grown beans (i.e., lima beans); experiment: Lima bean field yield, Gustine, CA, 2010; settings: aqueous kinetin solution applied to foliage just prior to flowering at one pint per acre or two pints per acre; up to approx. 35 degrees Celsius
Procedure: In this example, the effect of the plant growth regulator cytokinin, specifically kinetin, applied at the beginning of flowering and two to four weeks thereafter to field-grown beans (i.e., lima beans) in Gustine, Calif. was observed. Growing temperatures up to approximately 35 degrees Celsius were recorded. […] The difference of “t” test of 5% is significant.

field-grown corn crops = experiment: Field-grown corn treated before the reproductive stage, Weslaco, Tex.: yield and seed size
Excerpt: In this example, the effect of the plant growth regulator cytokinin, specifically kinetin, and applied at various times before the reproductive stages of growth, was observed. In Table 2, V7, V10, V13, and V16 refer to stages of growth of the corn plant. V7 refers to the growth stage where the collar of the seventh leaf is visible, V10 refers to the growth stage where the collar of the tenth leaf is visible, V13 refers to the growth stage where the collar of the thirteenth leaf is visible, and V16 refers to the growth stage where the collar of the sixteenth leaf is visible. V16 is also just prior to the reproductive stage of growth. The corn crops were grown in Weslaco, Tex. The water levels were either none (i.e., simply rain referred to as dryland), or drip through a “drip tape” (i.e., drip irrigation whereby sufficient water was applied for more optimal growth of the crop). Results are given for yield (measured in bushels per acre), and the weight of the seed (measured in grams per 1,000 kernels). T tests indicate whether there were differences.

[2] = EXPT 1, stage V10, variety B25DC25 R80, drip
[3] = EXPT 1, stage V16, variety B25DC25 R80, drip
[4] = EXPT 2, stage V10, variety Asgrow 7573, dry land
[5] = EXPT 3, stage V7, variety H2684162, dry land
[6] = EXPT 3, stage V10, variety H2684162, dry land
[7] = EXPT 3, stage V13, variety H2684162, dry land
[8] = EXPT 3, stage V16, variety H2684162, dry land

[K+] [potassium]
average increase in yield by applying potassium in addition to cytokinin (field corn): ~15 bushels per acre

OC[C@H]1O[C@@](CO)(O[C@H]2O[C@H](CO)[C@@H](O)[C@H](O)[C@H]2O)[C@@H](O)[C@@H]1O [sucrose]
sugar/photosynthate deficiency (plant autophagy) (Arabidopsis thaliana; sucrose solutions of 20 mM and 100 mM sprayed on foliage, 14 days heat exposure): alleviated the sugar/photosynthate deficiency

c1coc(CNc2ncnc3[nH]cnc23)c1 [kinetin]
number of seeds (i.e., siliques) (Arabidopsis thaliana; 100 μg/l (0.1 ppm) sprayed on foliage 1 day before and 4 days after start of heat, 14 days at 33-36 degrees Celsius days): increased number of seeds
lima bean yields [1]: increased significantly
1,000 Kernel wt g (field-grown corn crops; [2]): 298 g
Yield Bu/acre (field-grown corn crops; [2]): 259 Bu/acre
1,000 Kernel wt g (field-grown corn crops; [3]): 298 g
Yield Bu/acre (field-grown corn crops; [3]): 311 Bu/acre
1,000 Kernel wt g (field-grown corn crops; [4]): 244 g
Yield Bu/acre (field-grown corn crops; [4]): 149 Bu/acre
1,000 Kernel wt g (field-grown corn crops; [5]): 295 g
Yield Bu/acre (field-grown corn crops; [5]): 212 Bu/acre
1,000 Kernel wt g (field-grown corn crops; [6]): 296 g
Yield Bu/acre (field-grown corn crops; [6]): 211 Bu/acre
1,000 Kernel wt g (field-grown corn crops; [7]): 299 g
Yield Bu/acre (field-grown corn crops; [7]): 208 Bu/acre
1,000 Kernel wt g (field-grown corn crops; [8]): 296 g
Yield Bu/acre (field-grown corn crops; [8]): 207 Bu/acre
yield versus untreated control (field-grown corn crops; all treatments (stages V7 to V16, drip and dryland)): enhanced yield in a highly significant fashion
seed size versus untreated control (field-grown corn crops; dryland conditions (no added water or irrigation)): increased seed size in a highly significant fashion
